Tests used:
[1] = Laser diffraction particle size distribution analysis of acyclovir fine crystals; assay type: physicochemical; conditions: USP grade sterilized acyclovir fine crystals
Procedure: USP grade, sterilized acyclovir was used as fine crystals of acyclovir without any processing. Through laser diffraction particle size distribution analysis, the crystals were determined to have an average particle size of 25.9 μm.

[2] = tested on: herpes virus; conditions: Crumpaker et al., Antimicrob. Agents Chemother. 15, 642 (1979); cited from earlier work

Nc1nc2c(ncn2COCCO)c(=O)[nH]1 [acyclovir, 9-[(2-hydroxyethoxy)methyl]guanine]
average particle size [1]: 25.9 μm
ID50 (50% inhibition level) of acyclovir against herpes virus [2]: approximately 0.03 μg/mL

From patent publication US20040109896A1, “Aqueous suspension eyedrops and process for producing the same” (priority 2001, published 2004)
